Values quoted from earlier work as cited in patent US11147778B2, “Siderophore-polymer conjugates for increasing bacterial sensitivity to antibiotics” (Wisconsin Alumni Research Foundation, priority 2016, dated 2021).

How the values were obtained:
Parameters in all cases: key: S = susceptible; I = intermediate; R = resistant
[1] = tested on: Pseudomonas aeruginosa 9139; conditions: strain 9139; cited from earlier work
[2] = tested on: Pseudomonas aeruginosa 26975; conditions: strain 26975; cited from earlier work
[3] = tested on: Pseudomonas aeruginosa 823; conditions: strain 823; cited from earlier work
[4] = tested on: Pseudomonas aeruginosa 3070; conditions: strain 3070; cited from earlier work
[5] = tested on: Pseudomonas aeruginosa 24530; conditions: strain 24530; cited from earlier work
[6] = tested on: Pseudomonas aeruginosa 3071; conditions: strain 3071; cited from earlier work
[7] = tested on: Pseudomonas aeruginosa 3068; conditions: strain 3068; cited from earlier work
[8] = tested on: Pseudomonas aeruginosa 3072; conditions: strain 3072; cited from earlier work
[9] = tested on: Pseudomonas aeruginosa 3076; conditions: strain 3076; cited from earlier work
[10] = tested on: Pseudomonas aeruginosa 2638; conditions: strain 2638; cited from earlier work

| Compound | Phenotype (drug resistance profile) [1] | Phenotype (drug resistance profile) [2] | Phenotype (drug resistance profile) [3] | Phenotype (drug resistance profile) [4] | Phenotype (drug resistance profile) [5] | Phenotype (drug resistance profile) [6] | Phenotype (drug resistance profile) [7] | Phenotype (drug resistance profile) [8] | Phenotype (drug resistance profile) [9] | Phenotype (drug resistance profile) [10] |
| --- | --- | --- | --- | --- | --- | --- | --- | --- | --- | --- |
| CC(C)(O/N=C(\C(=O)N[C@@H]1C(=O)N2C(C(=O)[O-])=C(C[n+]3ccccc3)CS[C@H]12)c1csc(N)n1)C(=O)O [CAZ, ceftazidime] | S | R | R | R | R | CAZ-R, TZP-R, CIP-R | S | S | R | CAZ-R, TZP-R, CIP-R, TOB-R |
| O=C(O)c1cn(C2CC2)c2cc(N3CCNCC3)c(F)cc2c1=O [CIP, ciprofloxacin] | S | S | S | R | S | CAZ-R, TZP-R, CIP-R | R | R | R | CAZ-R, TZP-R, CIP-R, TOB-R |
| C[C@@H](O)[C@H]1C(=O)N2C(C(=O)O)=C(S[C@@H]3CN[C@H](CNS(N)(=O)=O)C3)[C@H](C)[C@H]12 [DOR, doripenem] | S | S | S | R | DOR-R, IPM-R, MEM-R, FEP-R, | DOR-R, IPM-R, MEM-R, FEP-R, | DOR-R, IPM-R, MEM-R, FEP-R, | R | R | DOR-R, IPM-R, MEM-R, FEP-R, |
| CO/N=C(\C(=O)N[C@@H]1C(=O)N2C(C(=O)[O-])=C(C[N+]3(C)CCCC3)CS[C@H]12)c1csc(N)n1 [FEP, cefepime] | R | R | R | I | DOR-R, IPM-R, MEM-R, FEP-R, | DOR-R, IPM-R, MEM-R, FEP-R, | DOR-R, IPM-R, MEM-R, FEP-R, | S | I | DOR-R, IPM-R, MEM-R, FEP-R, |
| C[C@@H](O)[C@H]1C(=O)N2C(C(=O)O)=C(S[C@@H]3CN[C@H](C(=O)N(C)C)C3)[C@H](C)[C@H]12 [MEM, meropenem] | S | S | S | R | DOR-R, IPM-R, MEM-R, FEP-R, | DOR-R, IPM-R, MEM-R, FEP-R, | DOR-R, IPM-R, MEM-R, FEP-R, | R | R | DOR-R, IPM-R, MEM-R, FEP-R, |
| NC[C@H]1O[C@H](O[C@H]2[C@H](O)[C@@H](O[C@H]3O[C@H](CO)[C@@H](O)[C@H](N)[C@H]3O)[C@H](N)C[C@@H]2N)[C@H](N)C[C@@H]1O [TOB, tobramycin] | S | R | S |  | S |  |  | R | S | CAZ-R, TZP-R, CIP-R, TOB-R |
